The values below are quoted from earlier work in paper PMC10715210, “Colistin plasma concentrations are not associated with better clinical outcomes in patients with pneumonia caused by extremely drug-resistant Pseudomonas aeruginosa” (Microbiology Spectrum, 2023).

Molecules are shown by their SMILES. Positions of bridges follow the written chain, without caps; N, C: chain ends. Non-standard residues stand in square brackets, D forms with d. Residues, ends and D or L forms follow the SMILES beside them. *: point of attachment. X1 = CC[C@H](C)CCCCC(=O)*; Dab = NCC[C@H](N)C(=O)O

For the data set the following is noted: samples drawn at 45 min after the start of infusion; loading dose 9 million IU CMS then 4.5 million IU every 12 hours; cited from earlier work. On the procedure:
([10]). […] Concentrations of CMS and formed colistin in plasma were measured as reported previously ([35], [36]). The limits of quantification for colistin and CMS in plasma were 0.20 and 0.50 mg/L, respectively. Based on the almost flat plasma concentration-time profiles of formed colistin at st ...

As for `CC[C@H](C)CCCCC(=O)N[C@@H](CCN)C(=O)N[C@H](C(=O)N[C@@H](CCN)C(=O)N[C@H]1CCNC(=O)[C@H]([C@@H](C)O)NC(=O)[C@H](CCN)NC(=O)[C@H](CCN)NC(=O)[C@H](CC(C)C)NC(=O)[C@@H](CC(C)C)NC(=O)[C@H](CCN)NC1=O)[C@@H](C)O` [colistin] (X1-[Dab]T[Dab][Dab][Dab][dL]L[Dab][Dab]T; lactam 4-C), the Colistin plasma concentration is given as 0.44 (0.14–1.59) mg/L.
